According to PubChem BioAssay (NCI):
Several values for one entry are separate records, joined by “and”; a condition that tells them apart may be missing. Equal entries are not always repeated.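 Grown in 96-well plates, cells were treated for 48 hours with each compound at five concentrations. Insufficient inhibition: endpoint recorded as highest concentration tested. At the GI50, growth is halved. TGI marks complete inhibition of growth.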 Where a SMILES comes first, the peptide text is derived from it. The star is where a group is joined. Cbz = O=C(OCc1ccccc1)*

Legend:
Assay in all cases: NCI tumour cell line growth inhibition, 48 h
ACHN renal = system: ACHN renal
MCF7 breast = system: MCF7 breast
HCT-15 colon = system: HCT-15 colon
NCI-H522 lung = system: NCI-H522 lung
MOLT-4 leukemia = system: MOLT-4 leukemia
DU-145 prostate = system: DU-145 prostate
U251 CNS = system: U251 CNS
SK-OV-3 ovarian = system: SK-OV-3 ovarian
MDA-N = system: MDA-N
SF-268 CNS = system: SF-268 CNS
CAKI-1 renal = system: CAKI-1 renal

Row | Compound | TGI (ACHN renal) | TGI (MCF7 breast) | TGI (HCT-15 colon) | TGI (NCI-H522 lung) | TGI (MOLT-4 leukemia) | TGI (DU-145 prostate) | TGI (U251 CNS) | TGI (SK-OV-3 ovarian) | TGI (MDA-N) | TGI (SF-268 CNS) | TGI (CAKI-1 renal) | GI50 (SF-268 CNS) [µM]
1 | Cn1c(=O)n(CC(Br)CBr)c(=O)n(CC(Br)CBr)c1=O (stereo not given) | > 100 µM | > 100 µM | > 100 µM | > 100 µM | 87.1 µM | > 100 µM | > 100 µM | > 100 µM | > 100 µM | > 100 µM | > 100 µM | –
2 | C#CCOC(=O)c1ccccc1OC(C)=O | > 100 µM | > 100 µM | > 100 µM | > 100 µM | > 100 µM | > 100 µM | > 100 µM | > 100 µM | > 100 µM | > 100 µM | > 100 µM | –
3 | C[C@@H]1C(O)CC[C@H](C)C12CC=CC2=O (stereo not given in full) | > 100 µM | > 100 µM | > 100 µM | > 100 µM | > 100 µM | > 100 µM | > 100 µM | > 100 µM | > 100 µM | > 100 µM | > 100 µM | –
4 | CSc1c(C#N)c2n(c3ccccc3[n+]2C)c2ncccc12 | > 100 µM | 42.8 µM | > 100 µM | 48.6 µM | > 100 µM | 47.2 µM | 70.8 µM | > 100 µM | 58.6 µM | 86.9 µM | > 100 µM | –
5 | S=C1C=C(c2ccccc2)Sc2ccccc2N1 | > 100 µM | > 100 µM | > 100 µM | > 100 µM | > 100 µM | > 100 µM | > 100 µM | > 100 µM | > 100 µM | > 100 µM | > 100 µM | –
6 | CC(=O)c1cccc(NC2C(N)C(NC(=O)N(C)C)(C(C)O)C(C)(O)C2(O)COC(=O)c2c(C)cccc2O)c1 (stereo not given) | 0.334 µM and 0.539 µM | 1.13 µM | 1.01 µM | 0.0641 µM | 0.835 µM | 0.0202 µM | 0.109 µM | 0.0808 µM and 0.205 µM | 0.0135 µM | – | 0.0235 µM | < 0.001
7 | CN1C[C@@H]2CCCN2P1Oc1cccc2cccnc12 (stereo not given in full) | > 100 µM | 65.4 µM | > 100 µM | > 100 µM | 58.1 µM | > 100 µM | > 100 µM | > 100 µM | > 100 µM | 69.7 µM | > 100 µM | –
8 | Cc1ccc(C2=Nc3c(N)nc(N)nc3NC(c3ccccc3)C2)cc1 (stereo not given) | 28.8 µM and 32 µM | 22.5 µM and 21.5 µM | 15.9 µM and 12 µM | 16 µM and 30.9 µM | 28.3 µM and 97.6 µM | 28.3 µM and 29.3 µM | 24.6 µM and 26.4 µM | 27.1 µM and 27.6 µM | 5.64 µM and 5.72 µM | 29.9 µM and 31.8 µM | 24.7 µM and 29.5 µM | –
9 | CSCCCCCCCCCCOc1ccc(C=C2C(=C(C#N)C#N)c3ccccc3C2=C(C#N)C#N)cc1 | 29.5 µM | 32.3 µM | 46.8 µM | 38.2 µM | 64.5 µM | 28.9 µM | 31.2 µM | 32.1 µM | 38.3 µM | 34.2 µM | 32.3 µM | –
10 | CCOC(=O)C(C)NC(=O)C(C)NC(=O)C(C)NC(=O)C(C)NC(=O)C(C)NC(=O)C(C)NC(=O)C(C)NC(=O)OCc1ccccc1 (stereo not given) (Cbz-AAAAAAA-OEt; configuration not given here) | > 100 µM | > 100 µM | > 100 µM | > 100 µM | > 100 µM | > 100 µM | > 100 µM | > 100 µM | > 100 µM | > 100 µM | > 100 µM | –
11 | Fc1ccc(C(OCCN2CCC3CCC(C2)N3Cc2cc3ccccc3[nH]2)c2ccc(F)cc2)cc1 (stereo not given) | 4.07 µM | 3.57 µM | 2.38 µM | 2.84 µM | 4.03 µM | 3.59 µM | 3.42 µM | 5.69 µM | 3.1 µM | 4.12 µM | 5.69 µM | –
12 | Cc1nc2c(-c3ccccc3)[nH]c(C)c2c(=O)o1 | > 100 µM | 37.7 µM | > 100 µM | > 100 µM | > 100 µM | > 100 µM | > 100 µM | > 100 µM | > 100 µM | > 100 µM | > 100 µM | –
13 | CCOC(=O)c1c(SCCO)n(-c2ccccc2)c(=S)n(-c2ccccc2)c1=O | > 100 µM | > 100 µM | > 100 µM | > 100 µM | > 100 µM | > 100 µM | > 100 µM | > 100 µM | > 100 µM | > 100 µM | > 100 µM | –
14 | CN(/N=C\c1ccc2ccccc2c1)C1=NCCCCN1 | > 100 µM | 48.9 µM | > 100 µM | 34 µM | 48.2 µM | > 100 µM | 44.6 µM | > 100 µM | 31.2 µM | > 100 µM | 29.9 µM | –
15 | CC(=O)OC[C@@]12C[C@H]3C(=O)C(C)(C)C[C@H]3[C@]1(C)[C@@H](OC(C)=O)[C@]1(O)[C@H]([C@@H](OC(=O)c3ccccc3)[C@@H](C)[C@H]1OC(C)=O)[C@H]2OC(C)=O | > 20 µM | > 20 µM | > 20 µM | > 20 µM | > 20 µM | > 20 µM | > 20 µM | > 20 µM | > 20 µM | > 20 µM | > 20 µM | –
